The values below come from patent US6121257A, “Sulfamate containing macrocyclic immunomodulators” (Abbott Laboratories, priority 1999, dated 2000).

The assay has as its system human mixed lymphocyte reaction (MLR). Put plainly: human mixed lymphocyte reaction (MLR) assay. In kind it is cell-based. The settings on record: Table 1. How it is done:
The immunosuppressant activity of the compounds of the present invention was determined using the human mixed lymphocyte reaction (MLR) assay described by Kino, T. et al., in Transplantation Proceedings, XIX(5):36-39, Suppl. 6 (1987), hereby incorporated by reference.
One may read the IC50 as the point on the concentration scale where inhibition reaches its midpoint. Read a low IC50 as higher potency. `CC[C@@H]1/C=C(\C)C[C@H](C)C[C@H](OC)[C@H]2O[C@@](O)(C(=O)C(=O)N3CCCC[C@H]3C(=O)O[C@H](/C(C)=C/[C@@H]3CC[C@@H](OS(=O)(=O)NC(=O)OC)[C@H](OC)C3)[C@H](C)[C@@H](O)CC1=O)[C@H](C)C[C@@H]2OC` [Example 1, (1R,9S,12S,13R,14S,17R,21S,23S,24R,25S,27R)-17-ethyl-1,14-dihydroxy-23,25-dimethoxy-12-{(E)-2-[(1R,3R,4R)-3-methoxy-4-({[(methoxycarbonyl)amino]sulfonyl)oxy)cyclohexyl]-1-methylethenyl}-13,19,21,27-tetramethyl-2,3,10,16-tetraoxo-11,28-dioxa-4-azatricyclo[22.3.1.0^4,9]octacos-18-ene] had an IC50 of 0.73 nM.
In turn, `CCOC(=O)NS(=O)(=O)O[C@@H]1CC[C@@H](/C=C(\C)[C@H]2OC(=O)[C@@H]3CCCCN3C(=O)C(=O)[C@]3(O)O[C@H]([C@@H](OC)C[C@@H](C)C/C(C)=C/[C@@H](CC)C(=O)C[C@H](O)[C@H]2C)[C@@H](OC)C[C@H]3C)C[C@H]1OC` [Example 2, (1R,9S12S,13R,14S,17R,21S,23S,24R,25S,27R)-12-{(E)-2-[(1R,3R,4R)-4-({[(ethoxycarbonyl)amino]sulfonyl}oxy)-3-methoxycyclohexyl]-1-methylethenyl}-17-ethyl-1,14-dihydroxy-23,25-dimethoxy-13,19,21,27-tetramethyl-2,3,10,16-tetraoxo-11,28-dioxa-4-azatricyclo[22.3.1.0^4,9]octacos-18-ene] showed a 50% inhibitory concentration (IC50) of 0.57 nM.
With `CC[C@@H]1/C=C(\C)C[C@H](C)C[C@H](OC)[C@H]2O[C@@](O)(C(=O)C(=O)N3CCCC[C@H]3C(=O)O[C@H](/C(C)=C/[C@@H]3CC[C@@H](OS(=O)(=O)NC(=O)OCc4ccccc4)[C@H](OC)C3)[C@H](C)[C@@H](O)CC1=O)[C@H](C)C[C@@H]2OC` [Example 3, (1R,9S,12S,13R,14S,17R,21 S,23S,24R,25S,27R)-12-((E)-2-{(1R,3R,4R)-4-[({[(benzyloxy)carbonyl]amino]sulfonyl)oxy]-3-methoxycyclohexyl}-1-methylethenyl)-17-ethyl-1,14-dihydroxy-23,25-dimethoxy-13,19,21,27-tetramethyl-2,3,10,16-tetraoxo-11,28-dioxa-4-azatricyclo[22.3.1.0^4,9]octacos-18-ene] the figure was 3.96 nM; with `CC[C@@H]1/C=C(\C)C[C@H](C)C[C@H](OC)[C@H]2O[C@@](O)(C(=O)C(=O)N3CCCC[C@H]3C(=O)O[C@H](/C(C)=C/[C@@H]3CC[C@@H](OS(=O)(=O)NC(=O)OC(C)(C)C)[C@H](OC)C3)[C@H](C)[C@@H](O)CC1=O)[C@H](C)C[C@@H]2OC` [Example 4, (1R,9S,12S,13R,14S,17R,21S,23S,24R,25S,27R)-12-{(E)-2-[(1R,3R,4R)-4-({[(tert-butoxycarbonyl)amino]sulfonyl}oxy)-3-methoxycyclohexyl]-1-methylethenyl}-17-ethyl-1,14-dihydroxy-23,25-dimethoxy-13,19,21,27-tetramethyl-2,3,10,16-tetraoxo-11,28-dioxa-4-azatricyclo[22.3.1.0^4,9]octacos-18-ene], 0.99 nM.
Then `CC[C@@H]1/C=C(\C)C[C@H](C)C[C@H](OC)[C@H]2O[C@@](O)(C(=O)C(=O)N3CCCC[C@H]3C(=O)O[C@H](/C(C)=C/[C@@H]3CC[C@@H](OS(=O)(=O)NC(=O)OC4CCCC4)[C@H](OC)C3)[C@H](C)[C@@H](O)CC1=O)[C@H](C)C[C@@H]2OC` [Example 5, (1R,9S,12S,13R,14S,17R,21S,23S,24R,25S,27R)-12-((E)-2-{(1R,3R.4R)-4-[({[(cyclopentyloxy)carbonyl]amino}sulfonyl)oxy]-3-methoxycyclohexyl}-1-methylethenyl)-17-ethyl-1,14-dihydroxy-23,25-dimethoxy-13,19,21,27-tetramethyl-2,3,10,16-tetraoxo-11,28-dioxa-4-azatricyclo[22.3.1.0^4,9]octacos-18-ene], with 26.1 nM; and `CC[C@@H]1/C=C(\C)C[C@H](C)C[C@H](OC)[C@H]2O[C@@](O)(C(=O)C(=O)N3CCCC[C@H]3C(=O)O[C@H](/C(C)=C/[C@@H]3CC[C@@H](OS(=O)(=O)NC(=O)OC4CCCCC4)[C@H](OC)C3)[C@H](C)[C@@H](O)CC1=O)[C@H](C)C[C@@H]2OC` [Example 6, (1R,9S,12S,13R,14S,17R,21S,23S,24R,25S,27R)-12-((E)-2-{(1R,3R,4R)-4-[({[(cyclohexyloxy)carbonyl]amino}sulfonyl)oxy]-3-methoxycyclohexyl}-1-methylethenyl)-17-ethyl-1,14-dihydroxy-23,25-dimethoxy-13,19,21,27-tetramethyl-2,3,10,16-tetraoxo-11,28-dioxa-4-azatricyclo[22.3.1.0^4,9]octacos-18-ene], with 4.7 nM.
The molecule `CC[C@@H]1/C=C(\C)C[C@H](C)C[C@H](OC)[C@H]2O[C@@](O)(C(=O)C(=O)N3CCCC[C@H]3C(=O)O[C@H](/C(C)=C/[C@@H]3CC[C@@H](OS(=O)(=O)NC(=O)OC4CCCCCC4)[C@H](OC)C3)[C@H](C)[C@@H](O)CC1=O)[C@H](C)C[C@@H]2OC` [Example 7, (1R,9S,12S,13R,14S,17R,21S,23S,24R,25S,27R)-12-((E)-2-{(1R,3R,4R)-4-[({[(cycloheptyloxy)carbonyl]amino}sulfonyl)oxy]-3-methoxycyclohexyl}-1-methylethenyl)-17-ethyl-1,14-dihydroxy-23,25-dimethoxy-13,19,21,27-tetramethyl-2,3,10,16-tetraoxo-11,28-dioxa-4-azatricyclo[22.3.1.0^4,9]octacos-18-ene] gave an IC50 of 9.63 nM.
With `CC[C@@H]1/C=C(\C)C[C@H](C)C[C@H](OC)[C@H]2O[C@@](O)(C(=O)C(=O)N3CCCC[C@H]3C(=O)O[C@H](/C(C)=C/[C@@H]3CC[C@@H](OS(=O)(=O)NC(=O)OCc4ccncc4)[C@H](OC)C3)[C@H](C)[C@@H](O)CC1=O)[C@H](C)C[C@@H]2OC` [Example 8, (1R,9S,12S,13R,14S,17R,21S,23S,24R,25S,27R)-17-ethyl-1,14-dihydroxy-23,25-dimethoxy-12-((E)-2-{(1R,3R,4R)-3-methoxy-4-[({[(4-pyridinylmethoxy)carbonyl]amino}sulfonyl)oxy]cycyclohexyl}-1-methylethenyl)-13,19,21,27-tetramethyl-2,3,10,16-tetraoxo-11,28-dioxa-4-azatricyclo[22.3.1.0^4,9]octacos-18-ene] the figure was 0.1 nM.
Molecule `CC[C@@H]1/C=C(\C)C[C@H](C)C[C@H](OC)[C@H]2O[C@@](O)(C(=O)C(=O)N3CCCC[C@H]3C(=O)O[C@H](/C(C)=C/[C@@H]3CC[C@@H](OS(=O)(=O)NC(=O)OCc4cccnc4)[C@H](OC)C3)[C@H](C)[C@@H](O)CC1=O)[C@H](C)C[C@@H]2OC` [Example 9, (1R,9S,12S,13R,14S,17R,21S,23S,24R,25S,27R)-17-ethyl-1,14-dihydroxy-23,25-dimethoxy-12-((E)-2-{(1R,3R,4R)-3-methoxy-4-[({[(3-pyridinylmethoxy)carbonyl]amino}sulfonyl)oxy]cyclohexyl}-1-methylethenyl)-13,19,21,27-tetramethyl-2,3,10,16-tetraoxo-11,28-dioxa-4-azatricyclo[22.3.1.0^4,9]octacos-18-ene] displayed a concentration for half-maximal inhibition (IC50) of 4.77 nM.
Molecule `CC[C@@H]1/C=C(\C)C[C@H](C)C[C@H](OC)[C@H]2O[C@@](O)(C(=O)C(=O)N3CCCC[C@H]3C(=O)O[C@H](/C(C)=C/[C@@H]3CC[C@@H](OS(=O)(=O)NC(=O)OCc4ccccn4)[C@H](OC)C3)[C@H](C)[C@@H](O)CC1=O)[C@H](C)C[C@@H]2OC` [Example 10, (1R,9S,12S.13R,14S,17R,21S,23S,24R,25S,27R)-17-ethyl-1,14-dihydroxy-23,25-dimethoxy-12-((E)-2-[(1R,3R,4R)-3-methoxy-4-[({[(2-pyridinylmethoxy)carbonyl]amino}sulfonyl)oxy]cyclohexyl]-1-methylethenyl)-13,19,21,27-tetramethyl-2,3,10,16-tetraoxo-11,28-dioxa-4-azatricyclo[22.3.1.0^4,9]octacos-18-ene] had an IC50 of 0.16 nM.
For the molecule `CC[C@@H]1/C=C(\C)C[C@H](C)C[C@H](OC)[C@H]2O[C@@](O)(C(=O)C(=O)N3CCCC[C@H]3C(=O)O[C@H](/C(C)=C/[C@@H]3CC[C@@H](OS(=O)(=O)NC(=O)OCc4ccc([N+](=O)[O-])cc4)[C@H](OC)C3)[C@H](C)[C@@H](O)CC1=O)[C@H](C)C[C@@H]2OC` [Example 11, (1R,9S,12S,13R,14S,17R,21S,23S,24R,25S,27R)-17-ethyl-1,14-dihydroxy-23,25-dimethoxy-12-[(E)-2-((1R,3R,4R)-3-methoxy-4-{[({[(4-nitrobenzyl)oxy]carbonyl}amino)sulfonyl]oxy}cyclohexyl)-1-methylethenyl]-13,19,21,27-tetramethyl-2,3,10,16-tetraoxo-11,28-dioxa-4-azatricyclo[22.3.1.0^4,9]octacos-18-ene], the concentration for half-maximal inhibition (IC50) worked out at 6.68 nM.
Then `CC[C@@H]1/C=C(\C)C[C@H](C)C[C@H](OC)[C@H]2O[C@@](O)(C(=O)C(=O)N3CCCC[C@H]3C(=O)O[C@H](/C(C)=C/[C@@H]3CC[C@@H](OS(=O)(=O)NC(=O)O[C@@H]4C[C@H](C)CC[C@H]4C(C)C)[C@H](OC)C3)[C@H](C)[C@@H](O)CC1=O)[C@H](C)C[C@@H]2OC` [Example 12], with 24.5 nM.
With `CC[C@@H]1/C=C(\C)C[C@H](C)C[C@H](OC)[C@H]2O[C@@](O)(C(=O)C(=O)N3CCCC[C@H]3C(=O)O[C@H](/C(C)=C/[C@@H]3CC[C@@H](OS(=O)(=O)NC(=O)OCC45CC6CC(CC(C6)C4)C5)[C@H](OC)C3)[C@H](C)[C@@H](O)CC1=O)[C@H](C)C[C@@H]2OC` [Example 13, (1R,9S,12S,13R,14S,17R,21S,23S,24R,25S,27R)-12-((E)-2-{(1R,3R,4R)-4-[({[(1-adamantylmethoxy)carbonyl]amino}sulfonyl)oxy]-3-methoxycyclohexyl}-1-methylethenyl)-17-ethyl-1,14-dihydroxy-23,25-dimethoxy-13,19,21,27-tetramethyl-2,3,10,16-tetraoxo-11,28-dioxa-4-azatricyclo[22.3.1.0^4,9]octacos-18-ene], the IC50 came to 21.6 nM.
